According to patent US6613956B1, “PI 3-kinase fusion mutants and uses thereof” (Chiron Corporation, priority 1996, dated 2003):

Legend:
Akt = biological target: T1, Akt (Mus musculus, UniProt P31750); assay: In vitro protein kinase assay of immobilized Akt preincubated with phospholipid vesicles, histone H2B as substrate; format: biochemical; settings: for increases Akt activity: summary statement for the three PI 3-kinase products; for stimulation of Akt: p110*-generated PI3,4P2 in PC vesicles, relative to unstimulated Akt
T1 construct: made in house; host or cells: COS-7 cells (transient transfection, anti-HA 12CA5 immunoprecipitation on Protein A-Sepharose)

Akt RC25 = biological target: T2, Akt RC25 (Homo sapiens, UniProt P31749, R25C); assay: In vitro kinase assay of PH domain point mutant Akt RC25 with PI3,4P2 vesicles; format: biochemical; settings: vesicles generated with p110*
T2 construct: made in house; host or cells: COS-7 cells (transient transfection, anti-HA 12CA5 immunoprecipitation on Protein A-Sepharose)
From the text: We determined that the PH domain at the Akt N-terminus is essential for PI3,4P2 mediated stimulation. It has previously been reported that the stimulation of the kinase activity of Akt by PI 3-kinase in vivo is dependent on the PH domain at its immediate N-terminus. We determined that PI3,4P2 mediates its stimulatory effect on Akt through its PH domain by introducing a point mutation in the PH domain of Akt (Akt RC25) which abrogates PI 3-kinase-mediated Akt activation in vivo. A kinase-deficient Akt, Akt KA179, was tested as an additional control. We incubated Akt, Akt RC25 and Akt KA179 proteins with PI3,4P2 in phospholipid vesicles using p110* as described above. […] The kinase-deficient Akt KA179 had no detectable enzymatic activity.
The assay for the in vitro protein kinase activity of Akt was conducted with immobilized Akt that was preincubated with or without mixed phospholipid vesicles (20 μl) for 10 min and subjected to an in vitro protein kinase assay using histone H2B (Boehringer Mannheim) as a substrate. […] The reactions were stopped by the addition of 8 μl Lammli-sample buffer and 22 μi of each reaction mixture were analyzed by 16% SDS-PAGE. The relative amounts of incorporated radioactivity were visualized by autoradiography and quantitated using a Molecular Imager System (BioRad).

T1 sequence (P31750 whole entry): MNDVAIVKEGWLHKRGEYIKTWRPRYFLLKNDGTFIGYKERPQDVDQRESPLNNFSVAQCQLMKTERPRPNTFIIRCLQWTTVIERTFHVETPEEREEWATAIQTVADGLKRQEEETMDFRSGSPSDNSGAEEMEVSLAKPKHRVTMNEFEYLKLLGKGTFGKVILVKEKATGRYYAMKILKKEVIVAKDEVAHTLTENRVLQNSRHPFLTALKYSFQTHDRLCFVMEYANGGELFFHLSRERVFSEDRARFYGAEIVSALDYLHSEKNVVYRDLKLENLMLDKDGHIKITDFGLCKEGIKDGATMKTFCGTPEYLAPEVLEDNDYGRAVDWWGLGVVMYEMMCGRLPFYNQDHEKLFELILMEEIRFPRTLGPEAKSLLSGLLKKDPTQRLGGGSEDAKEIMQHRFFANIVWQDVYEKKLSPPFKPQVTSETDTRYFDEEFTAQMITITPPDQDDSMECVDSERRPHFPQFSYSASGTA
T2 sequence (P31749 whole entry R25C, the tested form may be a part): as the sequence (P31750 whole entry) above, with N2S, R25C, S50A, A100T, R112K, T117E, T389K, N410G, D415H counted along it

Row | Substance | increases Akt activity (Akt) | stimulation of Akt kinase activity (Akt; vesicles containing synthetic PI3P, any conditions) | activation of Akt RC25 by PI3,4P2 containing vesicles (Akt RC25) | Akt activation (Akt; PE/PS vesicles) | stimulation of Akt (Akt; 4 μM) | stimulation of Akt (Akt; average) | Akt activation (Akt; presence of PS in the PI3,4P2/PC vesicles) | Akt activation (Akt; synthetic PI3,4P2 in either PE or PS vesicles) | further increase in Akt activation (Akt; synthetic dipalmitoyl derivatives of PI3,4P2, 260 nM to 1.3 μM) | increase in kinase activity of Akt (Akt; synthetic dipalmitoylated PI3,4P2 in PC vesicles) | activation of Akt by PI3,4P2 containing vesicles (Akt; wild-type Akt, vesicles generated with p110*)
1 | PI 3-phosphate [PI3P] | not | No stimulation |  |  |  |  |  |  |  |  | 
2 | phosphatidylinositol 3,4 bisphosphate [PI3,4P2] | increases Akt activity |  | not activated | did not allow activation of Akt | 9 fold | 3 fold | interfered with Akt activation | No activation | No further increase | approximately 2.5 fold | efficiently activated
